# Test results from patent US6303596A, “Use of taurolidine for treatment of leukemias” (priority 2000, dated 2001).
# Several values for one entry are separate records, joined by “and”; a condition that tells them apart may be missing. Equal entries are not always repeated.
# B1: IL-4: anti-inflammatory cytokine IL-4 (protein, UniProt P05112 25-153, looked up)
# Interleukin-4: HKCDITLQEIIKTLNSLTEQKTLCTELTVTDIFAASKNTTEKETFCRAATVLRQFYSHHEKDTRCLGATAQQFHRHKQLIRFLKRLDRNLWGLAGLNSCPVKEANQSTLENFLERLKTIMREKYSKCSS
# Experiments:
# [1] = test system: ECV304; assay: TUNEL / propidium iodide flow cytometry, ECV304; assay type: cell-based, human; conditions: ECV304; taurolidine 100 μg/ml or anisomycin 1 μg/ml for 4 h, assayed at 6 hours; mean ± SD
# Procedure: (§1) In the second method, DNA fragmentation was detected via TUNEL assay according to the manufacturer's instructions. With this methodology, 2×10^6 cells were fixed with 2% paraformaldehyde, permeabilized with 0.1% Triton X-100/0.1% citrate, incubated at 37° C. with terminal deoxynucleotidyl transferase and FITC-dUTP, rinsed and analyzed by flow cytometry. Enhanced FITC signal indicates apoptosis-specific DNA fragmentation. Gavriali, et al, "Identification of programmed cell death in situ via specific labeling of nuclear DNA fragmentation," J Cell Biol 119:493 (1992). Parallel aliquots of unfixed cells were treated with PI and FITC-conjugated anti-CD14 and analyzed by flow cytometry, in order to identify cells with permeable cell membranes (since PI binds to DNA but is excluded from cells with intact plasma membranes) and also to determine the cell-specificity of the apoptotic signal.
# (§2) In another study, TUNEL assays were performed on all cell lines 6 hours after cells were initially exposed to taurolidine (cells were treated for 4 hours, rinsed, and then incubated for 2 more hours before TUNEL assay was performed).
# (§3) . Taurolidine and anisomycin induced apoptosis in MM6, HL-60, and Jurkat cells (Table VIII). MM6 and HL-60 cells were similarly effected, with >80% TUNEL-positive cells after 6 hours. […]
# (§4) Data are percent of total cell-size events, and are expressed as mean ± […]
# [2] = test system: K562; assay: TUNEL / propidium iodide flow cytometry, K562; assay type: cell-based, human; conditions: taurolidine 100 μg/ml or anisomycin 1 μg/ml for 4 h, mean ± SD
# Procedure: as §1, §2
# (§5) . Taurolidine and anisomycin induced apoptosis in MM6, HL-60, and Jurkat cells (Table VIII). MM6 and HL-60 cells were similarly effected, with >80% TUNEL-positive cells after 6 hours. Jurkat cells were less sensitive, with approximately 50% of cells induced to undergo apoptosis after taurolidine treatment. After 6 hours, 73% of anisomycin-treated REH cells were apoptotic, with less than 20% of taurolidine-treated REH cells being TUNEL-positive. However, assay of cells 24 hours after
# (§6) ^a Analysis by flow cytometry after staining cells with propidium
# (§7) iodide and processing for TUNEL.
# (§8) Data are percent of total cell-size events, and are expressed as mean ±
# (§9) Cells were treated for 4 hours with taurolidine (100 μg/ml) or
# (§10) anisomycin (1 μg/ml), and then assayed at 6 hours.
# (§11) Data are percent of total cell-sized events, and are expressed as mean ±
# (§12) anisomycin (1 μg/ml), and then assayed at 24 hours.
# [3] = test system: HL-60; assay: TUNEL / propidium iodide flow cytometry, HL-60; assay type: cell-based, human; conditions: HL-60; taurolidine 100 μg/ml or anisomycin 1 μg/ml for 4 h, assayed at 6 hours; mean ± SD
# Procedure: as §1
# (§13) Consequently, TUNEL analysis was performed on PBMC at 3, 6, or 24 hours after treatment with 25 to 100 μg/ml taurolidine. Aliquots of harvested cells were also labeled with FITC-conjugated anti-CD14 antibodies and PI, which allowed identification of monocytes (CD14-positive cells) and cells with damaged cell membranes (PI-positive cells). […] Thus, nearly 75% of the monocytes were TUNEL-positive following treatment with 100 μg/ml taurolidine for six hours. Confirmation that the TUNEL-positive cells were monocytes was obtained by staining with FITC-conjugated anti-CD14.
# as §2, §5, §6, §7, §8, §9, §10
# [4] = test system: GM5387; assay: TUNEL / propidium iodide flow cytometry, GM5387; assay type: cell-based, human; conditions: GM5387; taurolidine 100 μg/ml or anisomycin 1 μg/ml for 4 h, assayed at 6 hours; mean ± SD
# Procedure: as §1, §2, §3, §4
# [5] = test system: Lymphocytes; assay: tissue or blood; assay type: cell-based, human; conditions: whole blood
# Procedure: (§14) FIGS. 15A, 15B, and 15C depict TUNEL analysis of PBMC treated with taurolidine in whole blood, for control cells, taurolidine-treated cells, and anisomycin-treated cells, respectively . Cells were incubated with 500 μg/ml taurolidine for 4 hours, resuspended in fresh medium, incubated for two hours further and processed for TUNEL analysis. Parallel samples were stained with FITC-conjugated anti-CD14 and PI as described herein. Ten thousand events were recorded per sample. TUNEL signal (x -axis) is a measure of DNA fragmentation, while FSC (y-axis) is related to cell size. TUNEL-negative lymphocytes are bounded by rectangle R 1, while TUNEL-negative monocytes (CD 14 positive cells) are bounded by rectangle R2. R3 bounds the TUNEL-positive population of cells. There were minimal numbers of PI-positive cells in 6 hour samples (see Table VI).
# as §1
# (§15) Taurolidine at 100 μg/ml induced apoptosis of approximately 75% of purified peripheral blood monocytes when these cells were incubated in culture medium. However, in order to more closely mimic the milieu of leukocytes in vivo, induction of apoptosis in PBMC by taurolidine was studied in whole blood (anticoagulated with heparin). As before, apoptosis was quantitated by measuring the loss of monocytes from a TUTNEL-negative (no DNA fragmentation), CD 14 positive population of cells which was concomitant with the appearance of a TUNEL-positive population of cells. Treatment of PBMC in whole blood resulted
# (§16) in a shift of the taurolidine dose-response curve. […] As a positive control for induction of apoptosis, some cells were treated with anisomycin, a protein synthesis inhibitor known to induce apoptosis in monocytes.
# (§17) ^a Analysis by flow cytometry after staining cells with PI and
# (§18) processing for TUNEL. Data are mean ± SD of 2 experiments.
# (§19) ^b Percent of cells present in the TUNEL-negative region in control
# [6] = test system: Monocytes; assay: tissue or blood; assay type: cell-based, human
# Procedure: as §14, §1, §15, §16, §17, §18, §19
# [7] = test system: REH; assay: TUNEL / propidium iodide flow cytometry, REH; assay type: cell-based, human; conditions: taurolidine 100 μg/ml or anisomycin 1 μg/ml for 4 h, mean ± SD
# Procedure: as §1, §2, §5, §6, §7, §8, §9, §10, §11, §12
# [8] = test system: MM6; assay: TUNEL / propidium iodide flow cytometry, MM6; assay type: cell-based, human; conditions: MM6; taurolidine 100 μg/ml or anisomycin 1 μg/ml for 4 h, assayed at 6 hours; mean ± SD
# Procedure: as §1, §13, §2, §5, §6, §7, §8, §9, §10
# [9] = test system: Jurkat; assay: TUNEL / propidium iodide flow cytometry, Jurkat; assay type: cell-based, human; conditions: taurolidine 100 μg/ml or anisomycin 1 μg/ml for 4 h, assayed at 6 hours, mean ± SD
# Procedure: as §1, §2, §3, §4
# [10] = test system: TNFα; assay: LPS-induced TNFα expression/secretion by MM6 cells, ELISA; assay type: cell-based, human; conditions: MM6, taurine 44 μg/ml
# Procedure: FIG. 3A and FIG. 3B are graphs depicting taurolidine inhibition of LPS-induced alpha […] (TNFα) expression by monocytic cells as determined by assay procedures. FIG. 3A represents MM6 cells; FIG. 3B represents PBMC. The cells were induced with LPS (hatched bars: 100 ng/ml LPS in RPMI+10% BCS; solid bars: 10 ng/ml in AIM-V+0.01% BCS) in the presence of varying concentrations of taurolidine. After four hours, cell supernatants were collected for TNFα ELISA. Data are expressed as percent of TNFα levels measured in cell cultures treated with LPS alone (no taurolidine or vehicle). Experiments were performed with duplicate samples and were repeated at least three times. Values shown in FIG. 3A are from a representative experiment. Values shown in FIG. 3B are mean±SEM of three experiments.
# (§20) All cells were cultured in a 5% CO2 atmosphere at 37° C. MM6 cells were grown in RPMI supplemented with 10% BCS, 2 mM L-glutamine, and 50 μg/ml gentamicin (RPMI+10% BCS). In some experiments, MM6 cells were rinsed once with HBSS without Ca^++ or Mg^++ and once with AIM-V before finally being resuspended in AIM-V supplemented with 0.01% BCS (AIM-V+0.01% BCS). […] AIM-V was supplemented with a low amount of BCS (0.01%) in order to provide a source of LPS-binding protein, which enhances the response of monocytic cells to LPS. Ulevitch, R. J. and Tobias, P. S., "Recognition of endotoxin by cells leading to transmembrne signaling," Curr Opin Immunol 6:125 (1994). HL-60, REH, and Jurkat were cultured in RPMI supplemented with 10% heat inactivated fetal bovine serum (FBS), 2 mM L-glutamine, and 50 μg/ml gentamicin. ECV304 were cultured in M199 supplemented with 10% FBS, mM L-glutamine, and 50 μg/ml gentamicin. GM5387 was cultured in MEM supplemented with 20% FBS, 2 mM L-glutamine, and 50 μg/ml gentamicin.
# For induction of TF or TNFα expression, MM6 cells or PBMC were cultured either in RPMI supplemented with 10% BCS or in AIM-V+0.01% BCS, and stimulated by adding LPS to final concentrations of 10 to 100 ng/ml. […]
# [11] = test system: tissue factor (TF); assay: LPS-induced tissue factor (TF) expression in MM6 cells, ELISA; assay type: cell-based, human; conditions: MM6, taurine up to 0.5 mg/ml
# Procedure: FIG. 2A represents MM6 cells; FIG. 2B represents PBMC. The cells were induced with LPS (hatched bars: 100 ng/ml LPS in RPMI supplemented with 10% BCS (RPMI+10% BCS); solid bars: 10 ng/ml in AIM-V+0.01% BCS) in the presence of varying concentrations of taurolidine,or with a dilution of the vehicle equivalent to that given to cells receiving 100 μg/ml taurolidine. After four hours, cells were collected and lysates were prepared for TF ELISA. Data are expressed as percent of TF antigen measured in cells treated with LPS alone (no taurolidine or vehicle). Experiments were performed with duplicate samples and were repeated at least three times. Values shown are mean±SEM of all experiments.
# as §20, with “Ulevitch, R. J. and Tobias, P. S., "Recognition of endotoxin by cells leading to transmembrne signaling," Curr Opin Immunol 6:125 (1994).” left out
# For induction of TF or TNFα expression, MM6 cells or PBMC were cultured either in RPMI supplemented with 10% BCS or in AIM-V+0.01% BCS, and stimulated by adding LPS to final concentrations of 10 to 100 ng/ml. […] Except as noted, taurolidine and LPS were added to the cell cultures simultaneously. For TF determination, cells and culture media together were treated by adding Triton X-100 (1% final) and EDTA (7 mmol/L final), and the resulting lysates assayed by ELISA. […] For TNFα determination, cells were removed by centrifugation for 5 min at 250×g, and the supernatants were assayed by ELISA.
# [12] = test system: human blood monocytes; conditions: cited from earlier work
molecule,measurement,setting,value
COc1ccc(C[C@H]2NC[C@H](O)[C@H]2OC(C)=O)cc1 [anisomycin],% propidium iodide positive,[1],2.2 ± 3.1%
same,% propidium iodide positive,[2]; assayed at 6 hours,4.8 ± 3.1%
same,% TUNEL-positive,[2]; assayed at 24 hours,2.2 ± 6.2%
same,% propidium iodide,[2]; assayed at 24 hours,7.1 ± 2.3%
same,% TUNEL-positive,"[2]; assayed at 24 hours, listed as Anisomycin",less than 10%
same,% TUNEL-positive,[3],> 80% and 96.1 ± 6.8%
same,% propidium iodide positive,[3],28.3 ± 15.3%
same,% propidium iodide positive,[4],5.4 ± 3.2%
same,induction of apoptosis in lymphocytes,[5],no evidence for a significant effect
same,TUNEL-negative monocytes after anisomycin,[6]; PBMC in whole blood,loss of TUNEL-negative monocytes
same,TUNEL-positive cells after anisomycin,"[6]; whole blood, 6 hour incubation, versus taurolidine",fewer TUNEL-positive cells
same,% TUNEL-positive,[7]; assayed at 6 hours,73% and 72.9 ± 7.4%
same,% propidium iodide positive,[7]; assayed at 6 hours,18.4 ± 0.5%
same,% TUNEL-positive,[7]; assayed at 24 hours,53.0 ± 2.6%
same,% propidium iodide,[7]; assayed at 24 hours,51.6 ± 17.0%
same,% TUNEL-positive,[8],> 80% and 92.0 ± 2.3%
same,% propidium iodide positive,[8],19.1 ± 5.4%
same,% TUNEL-positive,[9],69.6 ± 19.8%
same,% propidium iodide positive,[9],5.1 ± 3.4%
NCCS(=O)(=O)O [taurine],effect on TNFα expression,[10],no effect on TNFα expression
same,effect on TF expression,[11],no effect on TF expression
B1,effect on apoptosis in LPS-stimulated monocytes,[12],can enhance apoptosis
